The numbers were not newly measured in US8815833B2, “Stable amifostine liquid concentrate” (Seidose, LLC, priority 2006, dated 2014), which cites them from elsewhere.

For this series the following is noted: cited from earlier work.

Each structure is given as a SMILES string.

On to `NCCCNCCSP(=O)(O)O` [amifostine trihydrate], for which the crystallization of solution result (about 200 mg/ml solution in water stored at refrigerated conditions) is reported as “substantial crystallization results”. Further, the “aqueous solubility in water” value (ambient conditions) is “about 200 mg/ml”.
